The experiment addresses T1, PD-1/PD-L1 (Homo sapiens, UniProt Q9NZQ7).
T1 construct: 60535 (PD-1/NFAT-Reporter-Jurkat); host or cells: CHO cells expressing PD-L1; Jurkat cells expressing PD-1
The experiment in a line: Detection of biological activity of PD-1/PD-L1 signaling inhibition at the cellular level (NFAT luciferase reporter, PD-1/NFAT-Reporter-Jurkat cells co-cultured with TCR activator/PD-L1-CHO cells). It is filed as cell-based. To be noted: PD-1/NFAT-Reporter-Jurkat + TCR activator/PD-L1-CHO co-culture, 6 hours; Atezolizumab as positive control. The source says:
Detection of Biological Activity of PD-1/PD-L1 Signaling Inhibition at the Cellular Level
This detection method is used for evaluating the biological activity of the compounds described in the present invention at the cellular level.
This detection method uses the luciferase reporter gene method to detect the biological activity of the compound on the inhibition of PD-1/PD-L1 signal at the cellular level. PD-1/NFAT—Reporter—Jurkat cells stably express human PD-1 and express the luciferase reporter gene regulated by NFAT elements; TCR activator/PD-L1-CHO cells stably express human PD-L1 and TCR activator elements. When the two cell lines were co-cultured, the binding of PD-1/PD-L1 inhibited the TCR signaling pathway, thereby inhibiting the expression of the downstream NFAT-controlled luciferase reporter gene. When PD-1/PD-L1 antibody or inhibitor is added, this inhibitory effect is reversed and luciferase is expressed, so that the effect of PD-1/PD-L1 inhibitor on luciferase activity can be detected.
PD-1/NFAT—Reporter—Jurkat cell (Cat: 60535) and TCR activator/PD-L1-CHO cell (Cat: 60536) were purchased from BPS Bioscience. Anti-human PD-L1 antibody (Atezolizumab, Cat: A2004) was purchased from Selleck; luciferase reporter gene expression detection kit (ONE-Glo™ Luciferase Assay System, Cat: E6120) was purchased from Promega; multifunction plate reader (SpectraMax i3x) was purchased from Molecular Devices.
The PD-1/NFAT—Reporter—Jurkat cells and TCR activator/PD-L1-CHO cells were cultured according to the routine cell culture protocol.
TCR activator/PD-L1-CHO cells were harvested and seeded into a 96-well culture plate at 35,000 cells/well in a medium volume of 100 μl and incubated overnight at 37° C. The next day, the medium was discarded, compound was added and incubated for 30 minutes, while a solvent control (dimethyl sulfoxide, DMSO, final concentration of 0.1%) and PD-L1 antibody (Atezolizumab, final concentration of about 10 nM) as positive controls were set. PD-1/NFAT-reporter-Jurkat cells were then added. After culturing for 6 hours, the luciferase activity was detected according to the instructions of the luciferase detection reagent.
Using PD-L1 antibody as a positive control, calculate the inhibition rate of PD-1/PD-L1 binding of the test compound (%)=(chemiluminescence value of compound treated wells/average value of chemiluminescence value of solvent control wells−1)/(average value of chemiluminescence value of PD-L1 antibody well/average value of chemiluminescence value of solvent control well−1)×100%.
According to the above detection method, the compounds of the present invention were evaluated for their biological activity at the cellular level, and the activity results are shown in the following table.

T1 sequence (Q9NZQ7 19-290): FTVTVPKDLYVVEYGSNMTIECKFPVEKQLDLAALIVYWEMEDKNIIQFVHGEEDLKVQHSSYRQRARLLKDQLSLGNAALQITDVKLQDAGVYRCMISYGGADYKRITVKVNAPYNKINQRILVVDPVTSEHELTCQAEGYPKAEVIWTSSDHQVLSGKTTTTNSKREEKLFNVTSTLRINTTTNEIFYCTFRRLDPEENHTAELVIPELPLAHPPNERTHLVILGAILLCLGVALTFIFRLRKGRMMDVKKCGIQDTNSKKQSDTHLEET

On to `N#Cc1cncc(COc2cc(Cn3ncc4c(-c5cccc(-c6ccc(CN7CC[C@@H](O)C7)cc6)c5Cl)cccc43)c(Cl)cc2CN[C@@H](CO)C(=O)O)c1` [Compound 1], for which the EC50 stood at 83 nM.

As for `Cc1c(-c2ccc(CNC[C@@H]3CCC(=O)N3)cc2)cccc1-c1cccc2c1cnn2Cc1cc(OCc2cncc(C#N)c2)c(CN[C@@H](CO)C(=O)O)cc1Cl` [Compound 2], the EC50 amounted to 85 nM.

Consider `N#Cc1cncc(COc2cc(Cn3ncc4c(-c5cccc(-c6ccc(CN7CCOCC7)cc6)c5Cl)cccc43)c(Cl)cc2CN[C@@H](CO)C(=O)O)c1` [Compound 3], for which the EC50 was 395 nM.

As to `CN(CCO)Cc1ccc(-c2cccc(-c3cccc4c3cnn4Cc3cc(OCc4cncc(C#N)c4)c(CN[C@@H](CO)C(=O)O)cc3Cl)c2Cl)cc1` [Compound 4], the EC50 was 206 nM.

On to `N#Cc1cncc(COc2cc(Cn3ncc4c(-c5cccc(-c6ccc(CNCCO)cc6)c5Cl)cccc43)c(Cl)cc2CN[C@@H](CO)C(=O)O)c1` [Compound 5], for which the EC50 stood at 58 nM.

For `CN(CCO[C@H]1CCOC1)Cc1ccc(-c2cccc(-c3cccc4c3cnn4Cc3cc(OCc4cncc(C#N)c4)c(CN[C@@H](CO)C(=O)O)cc3Cl)c2Cl)cc1` [Compound 6], the EC50 was 228 nM.

Regarding `CN1C(=O)CC[C@H]1CNCc1ccc(-c2cccc(-c3cccc4c3cnn4Cc3cc(OCc4cncc(C#N)c4)c(CN[C@@H](CO)C(=O)O)cc3Cl)c2Cl)cc1` [Compound 7], the EC50 came to 161 nM.

In the case of `COc1cc(-c2cccc(-c3cccc4c3cnn4Cc3cc(OCc4cncc(C#N)c4)c(CN[C@@H](CO)C(=O)O)cc3Cl)c2Cl)ccc1CNC[C@@H]1CCC(=O)N1` [Compound 8], the EC50 is 31 nM.

On to `N#Cc1cncc(COc2cc(Cn3ncc4c(-c5cccc(-c6ccc(CNC[C@@H]7CCC(=O)N7)cn6)c5Cl)cccc43)c(Cl)cc2CN[C@@H](CO)C(=O)O)c1` [Compound 9], for which the EC50 is 591 nM.

As to `N#Cc1cncc(COc2cc(Cn3ncc4c(-c5cccc(-c6ccc(CNC[C@@H]7CCC(=O)N7)nc6)c5Cl)cccc43)c(Cl)cc2CN[C@@H](CO)C(=O)O)c1` [Compound 10], the EC50 came to 82 nM.

For the molecule `COc1cc(CNC[C@@H]2CCC(=O)N2)ccc1-c1cccc(-c2cccc3c2cnn3Cc2cc(OCc3cncc(C#N)c3)c(CN[C@@H](CO)C(=O)O)cc2Cl)c1Cl` [Compound 11], the EC50 stood at 112 nM.

`N#Cc1cncc(COc2cc(Cn3ncc4c(-c5cccc(-c6ccc(CNC[C@@H]7CCC(=O)N7)cc6)c5F)cccc43)c(Cl)cc2CN[C@@H](CO)C(=O)O)c1` [Compound 12]: the EC50 is 255 nM.

As to `N#Cc1cncc(COc2cc(Cn3ncc4c(-c5cccc(-c6ccc(CNC[C@@H]7CCC(=O)N7)cc6)c5C#N)cccc43)c(Cl)cc2CN[C@@H](CO)C(=O)O)c1` [Compound 13], the EC50 was 116 nM.

Regarding `N#Cc1cncc(COc2cc(Cn3ncc4c(-c5cccc(-c6ccc(CNC[C@@H]7CCC(=O)N7)cc6)c5)cccc43)c(Cl)cc2CN[C@@H](CO)C(=O)O)c1` [Compound 14], the EC50 amounted to 339 nM.

`N#Cc1cncc(COc2cc(Cn3ncc4c(-c5cccc(-c6ccc(CCN7CC[C@@H](O)C7)cc6)c5Cl)cccc43)c(Cl)cc2CN[C@@H](CO)C(=O)O)c1` [Compound 18]: the EC50 came out at 562 nM.

On to `N#Cc1cncc(COc2cc(Cn3ncc4c(-c5cccc(-c6ccc(CCCN7CC[C@@H](O)C7)cc6)c5Cl)cccc43)c(Cl)cc2CN[C@@H](CO)C(=O)O)c1` [Compound 19], for which the EC50 came out at 510 nM.

For the molecule `N#Cc1cncc(COc2cc(Cn3ncc4c(-c5cccc(-c6ccc(CNC[C@@H]7CCC(=O)N7)cc6)c5Cl)cccc43)c(Cl)cc2CNCC(=O)O)c1` [Compound 22], the EC50 was 89 nM.

For the molecule `CC(C)OC(=O)[C@H](CO)NCc1cc(Cl)c(Cn2ncc3c(-c4cccc(-c5ccc(CNC[C@@H]6CCC(=O)N6)cc5)c4Cl)cccc32)cc1OCc1cncc(C#N)c1` [Compound 23], the EC50 came to 512 nM.

`N#Cc1cncc(COc2cc(Cn3ncc4c(-c5cccc(-c6ccc(CNC[C@@H]7CCC(=O)N7)cc6)c5Cl)cccc43)c(Cl)cc2CNCCO)c1` [Compound 24]: the EC50 is 54 nM.

For the molecule `N#Cc1cncc(COc2cc(Cn3ncc4c(-c5cccc(-c6ccc(CNC[C@@H]7CCC(=O)N7)cc6)c5Cl)cccc43)c(Cl)cc2CN2CCC[C@H]2C(=O)O)c1` [Compound 25], the EC50 is 128 nM.

In the case of `CN(Cc1cc(Cl)c(Cn2ncc3c(-c4cccc(-c5ccc(CNC[C@@H]6CCC(=O)N6)cc5)c4Cl)cccc32)cc1OCc1cncc(C#N)c1)[C@@H](CO)C(=O)O` [Compound 26], the EC50 amounted to 86 nM.

With `N#Cc1cncc(COc2cc(Cn3ncc4c(-c5cccc(-c6ccc(CNC[C@@H]7CCC(=O)N7)cc6)c5Cl)cccc43)c(Cl)cc2CN2CC[C@@H](C(=O)O)C2)c1` [Compound 27], the EC50 turned out to be 133 nM.

Take `COc1cc(-c2cccc(-c3cccc4c3cnn4Cc3cc(OCc4cncc(C#N)c4)c(CN[C@@H](CO)C(=O)OC(C)C)cc3Cl)c2Cl)ccc1CNC[C@@H]1CCC(=O)N1` [Compound 28]: the EC50 came to 110 nM.

Consider `COc1nc(-c2cccc(-c3cccc4c3cnn4Cc3cc(OCc4cncc(C#N)c4)c(CNCCO)cc3Cl)c2Cl)ccc1CNC[C@@H]1CCC(=O)N1` [Compound 29], for which the EC50 stood at 66 nM.

Regarding `COc1cc(Cn2ncc3c(-c4cccc(-c5ccc(CNC[C@@H]6CCC(=O)N6)cc5)c4Cl)cccc32)c(Cl)cc1CN[C@@H](CO)C(=O)O` [Compound 30], the EC50 was found to be 82 nM.

`COc1cc(Cn2ncc3c(-c4cccc(-c5ccc(CNC[C@@H]6CCC(=O)N6)cc5)c4Cl)cccc32)c(Cl)cc1CNC[C@H](O)CC(=O)O` [Compound 31]: the EC50 stood at 82 nM.

Turning to `COc1cc(Cn2ncc3c(-c4cccc(-c5ccc(CNC[C@@H]6CCC(=O)N6)cc5)c4Cl)cccc32)c(Cl)cc1CNCC(=O)O` [Compound 32], the EC50 was 244 nM.

As to `COc1cc(Cn2ncc3c(-c4cccc(-c5ccc(CNC[C@@H]6CCC(=O)N6)cc5)c4Cl)cccc32)c(Cl)cc1CN1CC[C@@H](C(=O)O)C1` [Compound 33], the concentration for a half-maximal effect (EC50) turned out to be 511 nM.

Regarding `COc1cc(Cn2ncc3c(-c4cccc(-c5ccc(CNC[C@@H]6CCC(=O)N6)cc5)c4Cl)cccc32)c(Cl)cc1CN1CCC[C@@H](C(=O)O)C1` [Compound 35], the EC50 amounted to 859 nM.

Regarding `COc1cc(Cn2ncc3c(-c4cccc(-c5ccc(CNC[C@@H]6CCC(=O)N6)cc5)c4Cl)cccc32)c(Cl)cc1CN1CCC[C@H](C(=O)O)C1` [Compound 36], the EC50 is 459 nM.

Turning to `COc1cc(Cn2ncc3c(-c4cccc(-c5ccc(CNC[C@@H]6CCC(=O)N6)cc5)c4Cl)cccc32)c(Cl)cc1CN1CCC(C(=O)O)CC1` [Compound 37], the EC50 was determined as 977 nM.

As to `COc1cc(Cn2ncc3c(-c4cccc(-c5ccc(CNC[C@@H]6CCC(=O)N6)cc5)c4Cl)cccc32)c(Cl)cc1CN1CC(C(=O)O)C1` [Compound 38], the EC50 came to 809 nM.

Consider `COc1cc(Cn2ncc3c(-c4cccc(-c5ccc(CNC[C@@H]6CCC(=O)N6)cc5)c4Cl)cccc32)c(Cl)cc1CNCC1CCC(C(=O)O)CC1` (stereo partly shown) [Compound 39], for which the concentration giving a half-maximal response (EC50) amounted to 298 nM.

`COc1cc(Cn2ncc3c(-c4cccc(-c5ccc(CNC[C@@H]6CCC(=O)N6)cc5)c4Cl)cccc32)c(Cl)cc1CNC1CCC(C(=O)O)CC1` (stereo partly shown) [Compound 40]: the EC50 was 213 nM.

With `COc1cc(Cn2ncc3c(-c4cccc(-c5ccc(CNC[C@@H]6CCC(=O)N6)cc5)c4Cl)cccc32)c(Cl)cc1CNC1CCC(C(=O)O)CC1` (stereo partly shown) [Compound 41], the EC50 turned out to be 295 nM.

`COc1cc(Cn2ncc3c(-c4cccc(-c5ccc(CNC[C@@H]6CCC(=O)N6)cc5)c4Cl)cccc32)c(Cl)cc1CN1C[C@H](O)C[C@H]1C(=O)O` [Compound 42]: the EC50 came out at 348 nM.

Turning to `COc1cc(Cn2ncc3c(-c4cccc(-c5ccc(CNC[C@@H]6CCC(=O)N6)cc5)c4Cl)cccc32)c(Cl)cc1CN1CCC[C@H]1C(=O)O` [Compound 43], the EC50 stood at 537 nM.

On to `COc1cc(Cn2ncc3c(-c4cccc(-c5ccc(CNC[C@@H]6CCC(=O)N6)cc5)c4Cl)cccc32)c(Cl)cc1CN(C)CC1CCC(C(=O)O)CC1` (stereo partly shown) [Compound 47], for which the EC50 amounted to 499 nM.

As for `COc1cc(Cn2ncc3c(-c4cccc(-c5ccc(CNC[C@@H]6CCC(=O)N6)c(C)c5)c4Cl)cccc32)c(Cl)cc1CN1CC[C@@H](C(=O)O)C1` [Compound 48], the EC50 was determined as 654 nM.

Take `COc1cc(Cn2ncc3c(-c4cccc(-c5ccc(CNC[C@@H]6CCC(=O)N6)c(Cl)c5)c4Cl)cccc32)c(Cl)cc1CN1CC[C@@H](C(=O)O)C1` [Compound 49]: the EC50 came to 850 nM.

The EC50 is the concentration that produces a half-maximal response.

The record behind these values is patent US12583839B2, “PD-L1 antagonist compound” (ADLAI NORTYE BIOPHARMA CO., LTD., priority 2019, dated 2026).
